Assay results from US8951507B2, “Formulation with irritation reducing action comprising bisabolol and [6]-paradol” (Symrise AG, priority 2009, dated 2015).
“Also recorded” adds a separate entry of the source. Read-outs that look alike come from different tables or passages of the source.

Assays:
[1] = tested on: PGE2 release of human skin cells (keratinocytes); test: Anti-Prostaglandin E2 (PGE2) assay, A23187-induced PGE2 release, ELISA; assay type: cell-based; details: for Maximum PGE2 inhibition: at optimum concentration, versus A23187-stimulated control; for Optimum: concentration giving maximum PGE2 inhibition; for IC50: primary human epidermal keratinocytes, 2 μM A23187 calcium ionophore, at least two independent experiments, read-out: IC50 (50% of PGE2 release is inhibited)
Description: PGE2 is an important inflammatory mediator in the skin. Thus, the inhibiting effect of [6]-paradol and related compounds on (A23187-induced) PGE2 release of human skin cells (keratinocytes) is investigated.
Primary human epidermal keratinocytes are seeded into a 96 well microplate and are cultured in KGM medium to 60-80% confluency. Afterwards, the KGM medium is substituted by KGM medium depleted of hydrocortisone but containing the test compounds (test compound solutions are applied in medium in three different concentrations, each as a triple determination in three different wells, e.g. for [6]-paradol: in experiment 1 the following concentrations were used: 20 μM, 2 μM and 0.2 μM, in experiment 2 the following concentrations were used: 10 μM, 1 μM and 0.1 μM and in experiment 3 the following concentrations were used: 2.5 μM, 0.25 μM and 0.025 μM.
The cells are incubated for 30 minutes. Then, PGE2 release is stimulated by addition of 2 μM A23187 calcium ionophore. After further 30 min incubation, the PGE2 content of the supernatant is quantified in an ELISA (PGE2 Enzyme Immunoassay System from GE Healthcare).
The results set out above were obtained from at least two independent experiments. PGE2 inhibition was calculated in comparison to the calcium ionophore A23187-induced stimulated control (without addition of test compounds).

[2] = Stability in cosmetic compositions or products at varying pH (own experiments); assay type: physicochemical; details: basic, neutral or acidic cosmetic compositions or products
Excerpt: Furthermore, in contrast to gingerols and shogaols, in particular to gingerols, which are labile and prone to degradation (J. Pharm. Sci. 2001, 1658-1664), thus showing insufficient stability, according to own experiments [6]-paradol is very stable in cosmetic compositions or products, even at varying pH-values, i.e. in basic, neutral or acidic cosmetic compositions or products.
The synergistic combinations of bisabolol and [6]-paradol, i.e. the formulations according to the present invention, are preferably colourless, are advantageously of low odour and show good stability even at pH values […], which is of particular interest for several cosmetic products such as sunscreen formulations, soaps, deo sticks, alkaline hair colourations and oral care formulations like tooth pastes. The synergistic combinations of bisabolol and [6]-paradol are advantageously stable over a wide range of pH-values, generally in cosmetic compositions or products having a pH-value in the range of 4 to 10, in particular in cosmetic compositions or products having a pH-value in the range of 5 to 9.

[3] = literature reports; cited from earlier work

Row | IC50 [1] [nM] | IC50 ([1]; Keratinocyte) [nM] | Stability in cosmetic compositions or products [2] | SMILES | Maximum PGE2 inhibition [1] | Optimum [1] [µM] | PGE2 inhibitory activity compared with the other tested compounds ([1]; among [6]-paradol, [6]-gingerol, [8]-gingerol and [8]-paradol) | Mutagenicity [3]
1 | 1420 ± 670 |  |  | CCCCCCC[C@H](O)CC(=O)CCc1ccc(O)c(OC)c1 [[8]-Gingerol] | ~70% | 20 |  | 
2 |  | 130 | very stable | CCCCCCCC(=O)CCc1ccc(O)c(OC)c1 [[6]-Paradol, 1-(4-hydroxy-3-methoxyphenyl)-decan-3-one] | 90-100% | 5 | most active; also recorded: highest activity | not mutagenic
3 | 1480 ± 1210 |  |  | CCCCCCCCCC(=O)CCc1ccc(O)c(OC)c1 [[8]-Paradol] | 80-100% | 10 |  | 
4 | 3470 ± 4080 |  |  | CCCCC[C@H](O)CC(=O)CCc1ccc(O)c(OC)c1 [[6]-Gingerol] | ~30% | 5 |  | potent mutagen
